Like-named read-outs stand apart in the source and are kept apart here.
Experiments:
[1] = Plasma concentrations and estimation of urinary D-mannitol concentration after administration to cynomolgus monkeys; type: in vivo; conditions: 500 mg/kg; for concentration at 4 h / concentration at 1 h / concentration at 8 h / AUC(0-t) / clearance: cynomolgus monkey, plasma; for concentration at 4 h / concentration at 1 h / concentration at 8 h / Plasma concentration 0 hr (a) / Plasma concentration 0.25 hr (b) / Plasma concentration 24 hr (f): average of 3 animals; for concentration at 1 h: read-out: Plasma concentration 1 hr (c); for concentration at 8 h: read-out: Plasma concentration 8 hr (e); for AUC(0-t): read-out: AUC0-24 hr (g); for clearance: read-out: CLtot (h) (converted); for Estimated urinary concentration at 0.25 hr (k): amount of urine up to 0.25 hr assumed 3.91 mL; for Average plasma concentration from 0 hr to 0.25 hr (i): average of values a and b; for Amount excreted up to 0.25 hr (j): calculated by using CLtot
Protocol: (§1) For setting the test conditions such as the concentrations of sugar and antisense oligomers assumed to be in urine, D-mannitol, which is […] and corresponds to a reduced form of D-mannose, and antisense oligomers were administered to cynomolgus monkeys, and the urinary concentration shortly after administration were estimated from the changes in plasma concentrations and the total body clearance.
20% D-mannitol was diluted to 50 mg/mL with physiological saline, the diluted solution thus obtained was administered at 10 mL/kg to 3 male and 3 female cynomolgus monkeys aged 1 to 2 year-old, and the plasma concentrations were then measured at 0 hours (immediately after administration), 0.25 hours, 1 hour, 4 hours, 8 hours, and 24 hours after administration (each of the values a, b, c, d, e, and f in Table 2 was an average value of 3 animals). From the values, the area under the plasma concentration-time curve (AUC0-24 hr) up to 24 hours after administration and the total body clearance (CLtot) were calculated (the values g and h in Table 2). Further, the plasma concentrations at 0 hours and 0.25 hours after administration (the values a and b in Table 2) were averaged to obtain the average plasma concentration from 0 hours to 0.25 hours (the value i in Table 2), and the amount of D-mannitol excreted per body weight up to 0.25 hours (the value j in Table 2) was calculated by using CLtot (the value h in Table 2). The amount of urine up to 0.25 hours after administration was assumed to be 3.91 mL, based on the fact that the daily amount of urine of cynomolgus monkeys (body weight: 5 kg) was 375 mL (B Clark, D A Smith Pharmacokinetics and toxicity testing. Crit Rev Toxicol. 1984; 12 (4): 343-85.), and the urinary mannitol concentration at 0.25 hours after administration was then estimated (the value k in Table 2).
The estimated urinary concentration obtained as above was averaged, and the urinary concentration shortly after administration in a case of administering 500 mg/kg of D-mannitol was estimated to be 127.5 mg/mL. Since D-mannitol is rarely distributed in the body and rapidly excreted in urine without undergoing metabolism, it can be assumed that there is a linear relationship between the amount administered and the urinary concentration. Accordingly, by using the following formulas, the urinary concentration was converted into the amount of D-mannitol administered, and the amount administered was then converted into concentrations in the formulations at the time of administration (at the time of use) according to the body weight and the amount of dosing solution.

[2] = Plasma concentrations and estimation of urinary PMO No. 12 concentration after administration to cynomolgus monkeys; type: in vivo; conditions: male cynomolgus monkeys; for Plasma concentration 0 hr (a) / Plasma concentration 0.25 hr (b) / Plasma concentration 0.5 hr (c) / Plasma concentration 1 hr (d) / Plasma concentration 2 hr (e) / Plasma concentration 6 hr (f) / Plasma concentration 24 hr (g): average of 3 animals; for Estimated urinary concentration at 0.25 hr (l): amount of urine up to 0.25 hr assumed 3.91 mL; for Average plasma concentration from 0 hr to 0.25 hr (j): average of values a and b; for Amount excreted up to 0.25 hr (k): calculated by using CLtot
Protocol: as §1
From the values, the area under the plasma concentration-time curve (AUC0-24 hr) up to 24 hours after administration and the total body clearance (CLtot) were calculated (the values h and i in Table 3). Further, the plasma concentrations at 0 hours and 0.25 hours after administration (the values a and b in Table 3) were averaged to obtain the average plasma concentration from 0 hours to 0.25 hours (the value j in Table 3), and the amount of antisense oligomer excreted per body weight up to 0.25 hours (the value k in Table 3) was calculated by using CLtot (the value i in Table 3). The amount of urine up to 0.25 hours after administration was assumed to be 3.91 mL, based on the fact that the daily amount of urine of cynomolgus monkeys (body weight: 5 kg) was 375 mL, and the urinary antisense oligomer concentration at 0.25 hours after administration was then estimated (the value 1 in Table 3).

For `OC[C@@H](O)[C@@H](O)[C@H](O)[C@H](O)CO` [D-Mannitol, D-mannitol], the concentration at 4 h ([1]; female cynomolgus monkeys) was 90.3 µg/mL, the concentration at 1 h ([1]; female cynomolgus monkeys) was 720 µg/mL and the concentration at 8 h ([1]; female cynomolgus monkeys) was 4.87 µg/mL. It also gave an AUC(0-t) ([1]; female cynomolgus monkeys) of 2830 µg·h/mL, a clearance ([1]; female cynomolgus monkeys) of 2.95 mL/min/kg and a concentration at 4 h ([1]; male cynomolgus monkeys) of 89.2 µg/mL. The concentration at 1 h ([1]; male cynomolgus monkeys) was 651 µg/mL, the concentration at 8 h ([1]; male cynomolgus monkeys) was 4.67 µg/mL and the AUC(0-t) ([1]; male cynomolgus monkeys) was 2680 µg·h/mL. For the same compound, the clearance ([1]; male cynomolgus monkeys) was 3.12 mL/min/kg, the “urinary concentration shortly after administration (estimated, averaged)” value ([1]; cynomolgus monkeys, average of male and female estimates) was 127.5 mg/mL and the “Plasma concentration 0 hr (a)” value ([1]; female cynomolgus monkeys) was 2950 µg/mL. For the same compound, the “Plasma concentration 0.25 hr (b)” value ([1]; female cynomolgus monkeys) was 1490 µg/mL, the “Plasma concentration 24 hr (f)” value ([1]; female cynomolgus monkeys) was “Below detection limit” and the “Estimated urinary concentration at 0.25 hr (k)” value ([1]; female cynomolgus monkeys) was 126 mg/mL. The “Average plasma concentration from 0 hr to 0.25 hr (i)” value ([1]; female cynomolgus monkeys) was 2220 µg/mL, the “Amount excreted up to 0.25 hr (j)” value ([1]; female cynomolgus monkeys) was 98235 µg/kg and the “Plasma concentration 0 hr (a)” value ([1]; male cynomolgus monkeys) was 2810 µg/mL. For the same compound, the “Plasma concentration 0.25 hr (b)” value ([1]; male cynomolgus monkeys) was 1510 µg/mL, the “Plasma concentration 24 hr (f)” value ([1]; male cynomolgus monkeys) was “Below detection limit” and the “Estimated urinary concentration at 0.25 hr (k)” value ([1]; male cynomolgus monkeys) was 129 mg/mL. The “Average plasma concentration from 0 hr to 0.25 hr (i)” value ([1]; male cynomolgus monkeys) was 2160 µg/mL and the “Amount excreted up to 0.25 hr (j)” value ([1]; male cynomolgus monkeys) was 100980 µg/kg.
In the case of “PMO No. 12: phosphorodiamidate morpholino antisense oligomer, sequence CCTCCGGTTCTGAAGGTGTTC, 5′-end Group(2) (all phosphorodiamidate morpholino (PMO); further chemistry not fully specified)”, the “AUC0-24 hr (h)” value ([2]; 10 mg/kg) is reported as 50.25 µg·h/mL, the “CLtot (i)” value ([2]; 10 mg/kg) is reported as 3.317 mL/min/kg and the “Plasma concentration 0 hr (a)” value ([2]; 10 mg/kg) is reported as 137.6 µg/mL. For the same compound, the “Plasma concentration 0.25 hr (b)” value ([2]; 10 mg/kg) was 30.95 µg/mL, the “Plasma concentration 0.5 hr (c)” value ([2]; 10 mg/kg) was 19.06 µg/mL and the “Plasma concentration 1 hr (d)” value ([2]; 10 mg/kg) was 9.79 µg/mL. For the same compound, the “Plasma concentration 2 hr (e)” value ([2]; 10 mg/kg) was 4.328 µg/mL, the “Plasma concentration 6 hr (f)” value ([2]; 10 mg/kg) was “Below detection limit” and the “Plasma concentration 24 hr (g)” value ([2]; 10 mg/kg) was “Below detection limit”. The “Estimated urinary concentration at 0.25 hr (l)” value ([2]; 10 mg/kg) was 5.362 mg/mL, the “Average plasma concentration from 0 hr to 0.25 hr (j)” value ([2]; 10 mg/kg) was 84.28 µg/mL and the “Amount excreted up to 0.25 hr (k)” value ([2]; 10 mg/kg) was 4193 µg/kg. The “AUC0-24 hr (h)” value ([2]; 60 mg/kg) was 269.3 µg·h/mL, the “CLtot (i)” value ([2]; 60 mg/kg) was 3.713 mL/min/kg and the “Plasma concentration 0 hr (a)” value ([2]; 60 mg/kg) was 805.9 µg/mL. For the same compound, the “Plasma concentration 0.25 hr (b)” value ([2]; 60 mg/kg) was 154.7 µg/mL, the “Plasma concentration 0.5 hr (c)” value ([2]; 60 mg/kg) was 100.9 µg/mL and the “Plasma concentration 1 hr (d)” value ([2]; 60 mg/kg) was 45.93 µg/mL. For the same compound, the “Plasma concentration 2 hr (e)” value ([2]; 60 mg/kg) was 18.46 µg/mL, the “Plasma concentration 6 hr (f)” value ([2]; 60 mg/kg) was 1.045 µg/mL and the “Plasma concentration 24 hr (g)” value ([2]; 60 mg/kg) was “Below detection limit”. For the same compound, the “Estimated urinary concentration at 0.25 hr (l)” value ([2]; 60 mg/kg) was 34.21 mg/mL, the “Average plasma concentration from 0 hr to 0.25 hr (j)” value ([2]; 60 mg/kg) was 480.3 µg/mL and the “Amount excreted up to 0.25 hr (k)” value ([2]; 60 mg/kg) was 26753 µg/kg.
